Among the data in patent US7776862B2, “Pyridyl and phenyl substituted piperazine-piperidines with CXCR3 antagonist activity” (Schering Corporation, priority 2005, dated 2010) are IC50 values, retold here.

For the assay, the target named is T1, human CXCR3 (N-delta 4) (Homo sapiens, UniProt P49682).
T1 construct: CD8 leader; Flag tag; expressed in transfected cells; membranes used
T1 sequence (P49682 5-368 limits assumed): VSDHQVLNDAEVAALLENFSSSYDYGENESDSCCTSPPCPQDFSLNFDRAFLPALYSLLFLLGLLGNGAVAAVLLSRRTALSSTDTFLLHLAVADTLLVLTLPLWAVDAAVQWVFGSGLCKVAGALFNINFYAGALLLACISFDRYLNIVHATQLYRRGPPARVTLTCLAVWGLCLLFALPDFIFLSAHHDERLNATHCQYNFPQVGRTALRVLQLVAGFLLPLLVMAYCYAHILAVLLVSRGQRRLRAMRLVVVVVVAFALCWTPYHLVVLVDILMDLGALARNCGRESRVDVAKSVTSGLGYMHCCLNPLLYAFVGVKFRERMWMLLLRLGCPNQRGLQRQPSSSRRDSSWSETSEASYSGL
In words: Human CXCR3 (N-delta 4) scintillation proximity assay (SPA), [125I] IP-10 binding. To be noted: IC50 rating; Ba/F3-hCXCR3 (N-delta 4) membranes, 25 pM [125I] IP-10. From the text:
The inventive compounds can readily be evaluated to determine activity at the CXCR3 receptors by known methods, such as, for example, development of a human CXCR3 (N-delta 4) Binding Assay.
Cloning and expression of human CXCR3 (N-delta 4):
The DNA encoding human CXCR3 was cloned by PCR using human genomic DNA (Promega, Madison, Wis.) as a template. The PCR primers were designed based on the published sequence of human orphan receptor GPR9 (1) with incorporated restriction sites, a Kozak consensus sequence, CD8 leader and Flag tag. The PCR product was subcloned into the mammalian expression vector pME18Sneo, a derivative of the SR-alpha expression vector (designated as pME18Sneo-hCXCR3 (N-delta 4).
IL-3-dependent mouse pro-B cells Ba/F3 were transfected by electroporation in 0.4 ml Dulbecco's PBS containing 4×10^6 cells with 20 μg of pME18Sneo-hCXCR3 (N-delta 4) plasmid DNA. Cells were pulsed at 400 Volts, 100 OHMs, 960 μFd. The transfected cells were under selection with 1 mg/ml G418 (Life Technologies, Gaithersburg, Md.). […] IP-10 (NEN Life Science Products, Boston, Mass.).
Preparation of Ba/F3-hCXCR3 (N-delta 4) membranes:
Ba/F3 cells expressing human CXCR3 (N-delta 4) were pelleted and resuspended in the lysis buffer containing 10 mM HEPES, pH 7.5 and Complete® protease inhibitors (1 tablet per 100 ml) (Boehringer Mannheim, Indianapolis, Ind.) at a cell density of 20×10^6 cells per ml. […] Large cellular debris was removed by centrifugation at 1,000×g. Cell membrane in the supernatant was sedimented at 100,000×g. The membrane was resuspended in the lysis buffer supplemented with 10% sucrose and stored at −80° C. Total protein concentration of the membrane was determined by BCA method from Pierce (Rockford, Ill.).
Human CXCR3 (N-delta 4) scintillation proximity assay (SPA):
The beads were spun down, washed once, resuspended in the binding buffer and transferred to a 96-well Isoplate (Wallac, Gaithersburg, Md.). […] IP-10 with tested compounds in a series of titration were added to start the reaction.

A value given as a limit tells only on which side of the number the result lay.

`CC[C@H]1CN(c2ncc(C(=O)O)cc2Cl)CCN1C1CCN(Cc2ccc(Cl)cc2F)CC1` [compound 436] returned an IC50 of over 100 nM.

Consider `CC[C@H]1CN(c2ncc(CO)cc2Cl)CCN1C1CCN(Cc2ccc(Br)cc2)CC1` [compound 375], for which the IC50 is under 25 nM.

Consider `CNC(=O)c1cnc(N2CCN(C3CCN(C(=O)c4cc5cc(Cl)ccc5[nH]4)CC3)[C@@H](C)C2)c(Cl)c1` [compound 361], for which the IC50 is over 100 nM.

Take `N#Cc1ccc(CN2CCC(N3CCN(c4ncc(C(=O)NCc5ccc(F)c(Cl)c5)cc4Cl)CC3)CC2)cc1` [compound 107]: the IC50 is 25 to 100 nM.

`O=C(NCc1ccc(F)c(F)c1)c1cnc(N2CCN(C3CCN(Cc4ccc([N+](=O)[O-])cc4)CC3)CC2)c(Cl)c1` [compound 268] registered an IC50 of 25 to 100 nM.

For the compound `O=C(NCc1ccc(Cl)cc1F)c1cnc(N2CCN(C3CCN(Cc4ccc(Br)cc4)CC3)CC2)c(Cl)c1` [compound 105], the IC50 lay within 25 to 100 nM.

As for `CC[C@H]1CN(c2ncc(C(=O)NC)cc2Cl)CCN1C1CCN(Cc2ccccc2F)CC1` [compound 295], the IC50 was in the range of 25 to 100 nM.

Take `N#Cc1ccc(CN2CCC(N3CCN(c4ncc(C(=O)NCc5ccc(C(F)(F)F)cc5)cc4Cl)CC3)CC2)cc1` [compound 336]: the IC50 was over 100 nM.

With `O=C(NCc1ccc(Cl)c(Cl)c1)c1cnc(N2CCN(C3CCN(Cc4ccc(F)cc4)CC3)CC2)c(Cl)c1` [compound 135], the IC50 is 25 to 100 nM.

On to `O=C(NCc1ccc(F)c(Cl)c1)c1cnc(N2CCN(C3CCN(Cc4ccc(F)c(F)c4)CC3)CC2)c(Cl)c1` [compound 154], for which the IC50 was 25 to 100 nM.

Consider `O=C(NCc1ccc(F)c(Cl)c1)c1cnc(N2CCN(C3CCN(Cc4ccc(Cl)c(F)c4)CC3)CC2)c(Cl)c1` [compound 156], for which the IC50 was in the range of 25 to 100 nM.

`O=C(NCc1ccc(C(F)(F)F)cc1)c1cnc(N2CCN(C3CCN(Cc4ccc([N+](=O)[O-])cc4)CC3)CC2)c(Cl)c1` [compound 98] registered an IC50 of 25 to 100 nM.

Take `O=C(NCc1ccc(Cl)c(Cl)c1)c1cnc(N2CCN(C3CCN(Cc4ccc(F)c(F)c4)CC3)CC2)c(Cl)c1` [compound 147]: the half-inhibitory concentration (IC50) was 25 to 100 nM.

As to `O=C(NCc1ccc(Br)cc1)c1cnc(N2CCN(C3CCN(Cc4ccc(Cl)cc4Cl)CC3)CC2)c(Cl)c1` [compound 11], the IC50 was over 100 nM.

In the case of `CCNC(=O)c1cnc(N2CCN(C3CCN(Cc4ccc(Cl)cc4)CC3(C)C)CC2)c(Cl)c1` (stereo not shown) [compound 163], the IC50 was under 25 nM.

The compound `CCNCc1cnc(N2CCN(C3CCN(Cc4ccc(Cl)cc4F)CC3)[C@@H](CC)C2)c(Cl)c1` [compound 406] displayed an IC50 of under 25 nM.

In turn, `COc1ccc(CN2CCC(N3CCN(c4ncc(C(=O)NCc5cccc(F)c5)cc4Cl)CC3)CC2)cc1` [compound 30] came in with an IC50 of over 100 nM.

Turning to `CC[C@H]1CN(c2ncc(CNS(=O)(=O)CC(F)(F)F)cc2Cl)CCN1C1CCN(Cc2ccc(Cl)cc2F)CC1` [compound 416], the IC50 is 25 to 100 nM.

For `CC1(N2CCN(c3ncc(C(=O)NCc4ccc(Cl)c(Cl)c4)cc3Cl)CC2)CCN(Cc2ccc(Cl)cc2)CC1` [compound 206], the IC50 was in the range of 25 to 100 nM.

Regarding `O=C(NCc1ccc(Cl)cc1Cl)c1cnc(N2CCN(C3CCN(Cc4ccc(F)c(F)c4)CC3)CC2)c(Cl)c1` [compound 141], the IC50 was 25 to 100 nM.

For `O=C(NCc1ccc(F)cc1F)c1cnc(N2CCN(C3CCN(Cc4ccc(Cl)c(F)c4)CC3)CC2)c(Cl)c1` [compound 127], the IC50 lay within 25 to 100 nM.

Turning to `CC[C@H]1CN(c2ncc(CNC(=O)NC3CC3)cc2Cl)CCN1C1CCN(Cc2ccc(Cl)cc2F)CC1` [compound 372], the IC50 was under 25 nM.

Turning to `CNC(=O)c1cnc(N2CCN(C3CCN(Cc4ccc(Cl)cc4)C(C)C3)[C@@H](C)C2)c(Cl)c1` (stereo partly shown) [compound 252], the IC50 was under 25 nM.

`N#Cc1ccc(CN2CCC(N3CCN(c4ncc(C(=O)NCc5ccc(F)c(F)c5)cc4Cl)CC3)CC2)cc1` [compound 129]: the IC50 is 25 to 100 nM.

`O=C(NCc1ccc(Cl)cc1Cl)c1cnc(N2CCN(C3CCN(Cc4ccc(Br)cc4F)CC3)CC2)c(Cl)c1` [compound 26]: the IC50 is over 100 nM.

Regarding `O=C(NCc1ccc(Cl)c(Cl)c1)c1ccc(N2CCN(C3CCN(Cc4ccc(Cl)cc4)CC3)CC2)c(Cl)c1` [compound 17], the IC50 was over 100 nM.

In the case of `CC1CN(c2ncc(C(=O)NCc3ccc(F)c(F)c3)cc2Cl)CCN1C1CCN(Cc2ccc([N+](=O)[O-])cc2)CC1` (stereo not shown) [compound 187], the IC50 is under 25 nM.

Compound `CCNC(=O)c1cnc(N2CCN(C3CCN(Cc4ccc(Cl)cc4)CC3C)[C@@H](C)C2)c(Cl)c1` (stereo partly shown) [compound 209] yielded an IC50 of under 25 nM.

In turn, `CC(NC(=O)c1cnc(N2CCN(C3CCN(Cc4ccc(Cl)cc4)CC3)CC2)c(Cl)c1)c1ccc(Cl)cc1` (stereo not shown) [compound 171] gave an IC50 of 25 to 100 nM.

`O=C(NCc1ccc(F)c(F)c1)c1cnc(N2CCN(C3CCN(Cc4ccc(Br)cc4)CC3)CC2)c(Cl)c1` [compound 267]: the IC50 is 25 to 100 nM.

For the compound `CCNC(=O)c1cnc(N2CCN(C3CCN(C(CC)c4ccc(Cl)cc4)CC3)[C@@H](C)C2)c(Cl)c1` (stereo partly shown) [compound 339], the IC50 is over 100 nM.

`O=C(NCc1cccc(F)c1)c1cnc(N2CCN(C3CCN(Cc4ccc(Cl)c(F)c4)CC3)CC2)c(Cl)c1` [compound 296]: the IC50 was 25 to 100 nM.

Turning to `O=C(NCc1ccc(Cl)cc1F)c1cnc(N2CCN(C3CCN(Cc4ccc(Cl)c(F)c4)CC3)CC2)c(Cl)c1` [compound 93], the IC50 was over 100 nM.

`CC[C@H]1CN(c2ncc(C(=O)NCCO)cc2Cl)CCN1C1CCN(C(C(=O)OC)c2ccc(Cl)cc2)CC1` (stereo partly shown) [compound 274] yielded an IC50 of 25 to 100 nM.

`CCOCc1cnc(N2CCN(C3CCN(Cc4ccc(Cl)cc4F)CC3)[C@@H](CC)C2)c(Cl)c1` [compound 424] registered an IC50 of 25 to 100 nM.

Compound `CC[C@H]1CN(c2ncc(C(C)N)cc2Cl)CCN1C1CCN(Cc2ccc(Cl)cc2F)CC1` (stereo partly shown) [compound 450] gave an IC50 of over 100 nM.

For `COc1ccc(CN2CCC(N3CCN(c4ncc(C(=O)NCc5cc(Cl)cc(Cl)c5)cc4Cl)CC3)CC2)cc1` [compound 44], the IC50 was over 100 nM.

For the compound `N#Cc1ccc(CN2CCC(N3CCN(c4ncc(C(=O)NCc5cccc(F)c5)cc4Cl)CC3)CC2)cc1` [compound 61], the IC50 is over 100 nM.

For the compound `CC(c1ccc(C#N)cc1)N1CCC(N2CCN(c3ncc(C(=O)NCc4ccc(F)c(F)c4)cc3Cl)CC2)CC1` (stereo not shown) [compound 172], the IC50 was over 100 nM.

In turn, `CC[C@H]1CN(c2ncc(C(=O)NCc3ccc(F)c(F)c3)cc2Cl)CCN1C1CCN(C)CC1` [compound 365] registered an IC50 of over 100 nM.

Regarding `CCNC(=O)OCc1cnc(N2CCN(C3CCN(Cc4ccc(Cl)cc4F)CC3)[C@@H](CC)C2)c(Cl)c1` [compound 382], the IC50 was under 25 nM.

The compound `CC[C@H]1CN(c2ncc(C(C)(C)O)cc2Cl)CCN1C1CCN(Cc2ccc(Cl)cc2F)CC1` [compound 446] displayed an IC50 of over 100 nM.

In the case of `CCNC(=O)c1cnc(N2C[C@H](CC)N(C3CCN(Cc4ccc(Cl)cc4)CC3)C[C@H]2C)c(Cl)c1` [compound 214], the IC50 is under 25 nM.

As to `CNC(=O)c1cnc(N2CCN(C3CCN(Cc4c(F)cc(F)cc4F)CC3)[C@@H](C)C2)c(Cl)c1` [compound 341], the IC50 was over 100 nM.

In turn, `C[C@H]1CN(c2ncc(CN)cc2Cl)CCN1C1CCN(Cc2ccc(Cl)cc2)CC1` [compound 440] gave an IC50 of over 100 nM.

In the case of `CC[C@H]1CN(c2ncc(C(C)O)cc2Cl)CCN1C1CCN(Cc2ccc(Cl)cc2F)CC1` (stereo partly shown) [compound 433], the IC50 is over 100 nM.
